Assay [1] concerns the target Tyrosine-protein kinase Fes/Fps (Homo sapiens) (UniProt P07332). Kind of assay: Inhibition of FES (unknown origin) at 10 uM after 120 mins P33 radiolabeled kinase activity assay.
Assay [2] addresses T1, Rhodopsin kinase GRK7 (Homo sapiens) (UniProt Q8WTQ7).
T1 sequence (whole entry): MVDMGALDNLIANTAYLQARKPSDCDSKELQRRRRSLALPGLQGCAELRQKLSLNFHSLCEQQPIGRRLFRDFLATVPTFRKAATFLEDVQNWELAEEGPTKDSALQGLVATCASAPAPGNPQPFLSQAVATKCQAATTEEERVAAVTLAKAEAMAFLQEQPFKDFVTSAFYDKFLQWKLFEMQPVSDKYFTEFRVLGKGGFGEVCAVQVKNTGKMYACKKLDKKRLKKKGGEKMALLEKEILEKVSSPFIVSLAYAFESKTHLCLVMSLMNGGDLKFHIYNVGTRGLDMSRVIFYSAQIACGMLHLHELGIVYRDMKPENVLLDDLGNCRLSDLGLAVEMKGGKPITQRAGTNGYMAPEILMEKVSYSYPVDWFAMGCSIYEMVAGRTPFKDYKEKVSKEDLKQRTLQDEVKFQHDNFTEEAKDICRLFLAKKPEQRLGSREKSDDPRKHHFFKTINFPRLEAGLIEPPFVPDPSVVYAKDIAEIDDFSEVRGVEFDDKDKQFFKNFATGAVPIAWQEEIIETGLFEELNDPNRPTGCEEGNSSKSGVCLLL
Kind of assay: Inhibition of GRK7 (unknown origin) at 10 uM after 120 mins P33 radiolabeled kinase activity assay.

The target in assay [3] is Homeodomain-interacting protein kinase 3 (Homo sapiens) (UniProt Q9H422). Kind of assay: Inhibition of HIPK3 (unknown origin) at 10 uM after 120 mins P33 radiolabeled kinase activity assay.
Assay [4] deals with T2, Serine/threonine-protein kinase PLK4 (Homo sapiens) (UniProt O00444).
T2 sequence (whole entry): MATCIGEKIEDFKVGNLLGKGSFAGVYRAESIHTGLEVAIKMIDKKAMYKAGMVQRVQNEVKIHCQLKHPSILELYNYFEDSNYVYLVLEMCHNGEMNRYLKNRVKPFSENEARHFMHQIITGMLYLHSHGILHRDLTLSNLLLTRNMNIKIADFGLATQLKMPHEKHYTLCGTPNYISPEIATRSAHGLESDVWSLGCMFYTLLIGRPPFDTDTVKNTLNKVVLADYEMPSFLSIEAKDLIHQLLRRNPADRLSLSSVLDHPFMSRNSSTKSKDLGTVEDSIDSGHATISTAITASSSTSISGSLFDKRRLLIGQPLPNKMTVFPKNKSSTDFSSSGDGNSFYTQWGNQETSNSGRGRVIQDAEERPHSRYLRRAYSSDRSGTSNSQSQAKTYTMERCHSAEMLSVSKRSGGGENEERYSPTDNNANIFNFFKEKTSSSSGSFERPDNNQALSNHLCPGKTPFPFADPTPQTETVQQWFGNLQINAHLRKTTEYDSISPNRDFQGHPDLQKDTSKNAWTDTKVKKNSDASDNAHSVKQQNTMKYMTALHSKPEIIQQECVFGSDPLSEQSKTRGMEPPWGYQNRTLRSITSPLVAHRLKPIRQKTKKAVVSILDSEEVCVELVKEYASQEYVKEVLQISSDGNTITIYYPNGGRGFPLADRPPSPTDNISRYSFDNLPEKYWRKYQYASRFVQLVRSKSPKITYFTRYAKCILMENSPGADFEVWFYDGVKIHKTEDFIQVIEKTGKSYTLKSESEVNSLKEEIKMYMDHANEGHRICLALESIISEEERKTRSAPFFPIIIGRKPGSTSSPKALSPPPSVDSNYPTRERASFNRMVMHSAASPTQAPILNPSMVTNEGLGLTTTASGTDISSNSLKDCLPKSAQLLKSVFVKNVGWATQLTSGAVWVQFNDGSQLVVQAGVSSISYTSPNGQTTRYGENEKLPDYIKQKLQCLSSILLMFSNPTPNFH
Kind of assay: Inhibition of PLK4 (unknown origin) at 10 uM after 120 mins P33 radiolabeled kinase activity assay.

Assay [5] concerns the target LIM domain kinase 1 (Homo sapiens) (UniProt P53667). Put plainly: Inhibition of LIMK1 (unknown origin) at 10 uM after 120 mins P33 radiolabeled kinase activity assay.
The target in assay [6] is Mitogen-activated protein kinase kinase kinase 1 (Homo sapiens) (UniProt Q13233). Kind of assay: Inhibition of MEKK1 (unknown origin) at 10 uM after 120 mins P33 radiolabeled kinase activity assay.
Assay [7] deals with MAP kinase-interacting serine/threonine-protein kinase 2 (Homo sapiens) (UniProt Q9HBH9). Put plainly: Inhibition of MNK2 (unknown origin) at 10 uM after 120 mins P33 radiolabeled kinase activity assay.
For assay [8], the target named is Serine/threonine-protein kinase 38-like (Homo sapiens) (UniProt Q9Y2H1). Put plainly: Inhibition of STK38L (unknown origin) at 10 uM after 120 mins P33 radiolabeled kinase activity assay.
The target in assay [9] is High affinity nerve growth factor receptor (Homo sapiens) (UniProt P04629). Kind of assay: Inhibition of TRKA (unknown origin) at 10 uM after 120 mins P33 radiolabeled kinase activity assay.
Assay [10] has as its target RAC-alpha serine/threonine-protein kinase (Homo sapiens) (UniProt P31749). Kind of assay: Inhibition of AKT1 (unknown origin) at 10 uM after 120 mins P33 radiolabeled kinase activity assay.
Assay [11] deals with Non-receptor tyrosine-protein kinase TYK2 (Homo sapiens) (UniProt P29597). Put plainly: Inhibition of TYK2 (unknown origin) at 10 uM after 120 mins P33 radiolabeled kinase activity assay.
The target in assay [12] is Inactive tyrosine-protein kinase PEAK1 (Homo sapiens) (UniProt Q9H792). Put plainly: Inhibition of PEAK1 (unknown origin) at 10 uM after 120 mins P33 radiolabeled kinase activity assay.
Assay [13] concerns the target Casein kinase I isoform gamma-2 (Homo sapiens) (UniProt P78368). Kind of assay: Inhibition of CK1gamma2 (unknown origin) at 10 uM after 120 mins P33 radiolabeled kinase activity assay.

The record followed here is ChEMBL document CHEMBL3627608, “Crystal structures of human RIP2 kinase catalytic domain complexed with ATP-competitive inhibitors: Foundations for understanding inhibitor selectivity” (Bioorg Med Chem, 2015).

Each structure is given as a SMILES string.

Sequence of Inactive tyrosine-protein kinase PEAK1 (Homo sapiens) (Q9H792 whole entry, canonical isoform): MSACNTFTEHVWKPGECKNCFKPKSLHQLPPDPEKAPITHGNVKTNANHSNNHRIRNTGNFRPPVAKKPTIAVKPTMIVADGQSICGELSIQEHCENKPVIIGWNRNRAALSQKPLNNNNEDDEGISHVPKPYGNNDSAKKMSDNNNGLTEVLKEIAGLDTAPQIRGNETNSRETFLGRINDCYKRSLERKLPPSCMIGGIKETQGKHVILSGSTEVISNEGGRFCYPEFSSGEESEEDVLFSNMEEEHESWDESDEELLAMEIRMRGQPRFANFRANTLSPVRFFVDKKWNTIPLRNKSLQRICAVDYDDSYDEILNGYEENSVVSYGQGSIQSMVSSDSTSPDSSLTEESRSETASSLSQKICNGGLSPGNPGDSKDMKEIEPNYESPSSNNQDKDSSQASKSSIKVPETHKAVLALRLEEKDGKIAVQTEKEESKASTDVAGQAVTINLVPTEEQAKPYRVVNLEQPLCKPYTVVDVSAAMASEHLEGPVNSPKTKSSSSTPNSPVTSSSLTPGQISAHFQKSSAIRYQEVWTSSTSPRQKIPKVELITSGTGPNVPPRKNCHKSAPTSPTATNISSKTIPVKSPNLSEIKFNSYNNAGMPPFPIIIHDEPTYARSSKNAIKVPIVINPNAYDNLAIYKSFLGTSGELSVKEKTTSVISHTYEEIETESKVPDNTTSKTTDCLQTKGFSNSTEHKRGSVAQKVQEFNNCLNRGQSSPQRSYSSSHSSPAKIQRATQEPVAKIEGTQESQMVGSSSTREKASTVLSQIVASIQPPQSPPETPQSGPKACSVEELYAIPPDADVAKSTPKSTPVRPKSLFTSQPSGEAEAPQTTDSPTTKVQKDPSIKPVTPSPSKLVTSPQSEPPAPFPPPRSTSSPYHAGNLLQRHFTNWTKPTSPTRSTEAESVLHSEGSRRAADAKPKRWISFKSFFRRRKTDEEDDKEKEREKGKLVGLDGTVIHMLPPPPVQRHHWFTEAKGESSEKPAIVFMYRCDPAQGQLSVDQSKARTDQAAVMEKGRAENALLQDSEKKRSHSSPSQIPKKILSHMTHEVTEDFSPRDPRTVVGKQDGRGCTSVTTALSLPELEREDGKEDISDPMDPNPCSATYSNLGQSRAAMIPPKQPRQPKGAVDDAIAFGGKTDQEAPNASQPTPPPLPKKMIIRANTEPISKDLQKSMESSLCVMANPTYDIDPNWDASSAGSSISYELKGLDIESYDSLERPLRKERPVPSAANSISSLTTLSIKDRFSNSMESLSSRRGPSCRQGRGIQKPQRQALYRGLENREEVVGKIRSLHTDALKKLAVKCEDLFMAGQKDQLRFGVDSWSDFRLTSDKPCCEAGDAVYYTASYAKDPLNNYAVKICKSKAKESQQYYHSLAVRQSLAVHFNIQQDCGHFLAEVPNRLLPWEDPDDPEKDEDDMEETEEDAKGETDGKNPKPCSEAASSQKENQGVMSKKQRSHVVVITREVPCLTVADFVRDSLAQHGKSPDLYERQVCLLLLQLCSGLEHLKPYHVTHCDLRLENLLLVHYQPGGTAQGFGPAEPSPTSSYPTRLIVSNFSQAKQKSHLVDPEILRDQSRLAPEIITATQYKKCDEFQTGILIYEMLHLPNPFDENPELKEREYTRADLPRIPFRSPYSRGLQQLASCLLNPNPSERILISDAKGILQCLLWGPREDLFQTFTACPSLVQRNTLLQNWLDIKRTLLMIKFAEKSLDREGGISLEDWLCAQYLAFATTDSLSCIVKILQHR
Sequence of MAP kinase-interacting serine/threonine-protein kinase 2 (Homo sapiens) (Q9HBH9 whole entry, looked up): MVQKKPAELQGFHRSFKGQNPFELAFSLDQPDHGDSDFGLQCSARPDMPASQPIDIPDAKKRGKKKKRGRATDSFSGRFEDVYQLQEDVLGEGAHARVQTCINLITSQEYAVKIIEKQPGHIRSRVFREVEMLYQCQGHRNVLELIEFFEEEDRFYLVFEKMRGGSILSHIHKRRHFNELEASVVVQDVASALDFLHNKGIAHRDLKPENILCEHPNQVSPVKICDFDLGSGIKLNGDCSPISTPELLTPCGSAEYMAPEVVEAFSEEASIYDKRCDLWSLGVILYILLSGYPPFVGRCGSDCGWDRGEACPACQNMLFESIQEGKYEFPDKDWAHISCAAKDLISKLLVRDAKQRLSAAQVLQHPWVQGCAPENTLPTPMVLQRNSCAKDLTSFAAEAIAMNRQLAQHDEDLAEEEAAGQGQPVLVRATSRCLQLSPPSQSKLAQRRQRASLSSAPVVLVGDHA
Sequence of Non-receptor tyrosine-protein kinase TYK2 (Homo sapiens) (P29597 whole entry): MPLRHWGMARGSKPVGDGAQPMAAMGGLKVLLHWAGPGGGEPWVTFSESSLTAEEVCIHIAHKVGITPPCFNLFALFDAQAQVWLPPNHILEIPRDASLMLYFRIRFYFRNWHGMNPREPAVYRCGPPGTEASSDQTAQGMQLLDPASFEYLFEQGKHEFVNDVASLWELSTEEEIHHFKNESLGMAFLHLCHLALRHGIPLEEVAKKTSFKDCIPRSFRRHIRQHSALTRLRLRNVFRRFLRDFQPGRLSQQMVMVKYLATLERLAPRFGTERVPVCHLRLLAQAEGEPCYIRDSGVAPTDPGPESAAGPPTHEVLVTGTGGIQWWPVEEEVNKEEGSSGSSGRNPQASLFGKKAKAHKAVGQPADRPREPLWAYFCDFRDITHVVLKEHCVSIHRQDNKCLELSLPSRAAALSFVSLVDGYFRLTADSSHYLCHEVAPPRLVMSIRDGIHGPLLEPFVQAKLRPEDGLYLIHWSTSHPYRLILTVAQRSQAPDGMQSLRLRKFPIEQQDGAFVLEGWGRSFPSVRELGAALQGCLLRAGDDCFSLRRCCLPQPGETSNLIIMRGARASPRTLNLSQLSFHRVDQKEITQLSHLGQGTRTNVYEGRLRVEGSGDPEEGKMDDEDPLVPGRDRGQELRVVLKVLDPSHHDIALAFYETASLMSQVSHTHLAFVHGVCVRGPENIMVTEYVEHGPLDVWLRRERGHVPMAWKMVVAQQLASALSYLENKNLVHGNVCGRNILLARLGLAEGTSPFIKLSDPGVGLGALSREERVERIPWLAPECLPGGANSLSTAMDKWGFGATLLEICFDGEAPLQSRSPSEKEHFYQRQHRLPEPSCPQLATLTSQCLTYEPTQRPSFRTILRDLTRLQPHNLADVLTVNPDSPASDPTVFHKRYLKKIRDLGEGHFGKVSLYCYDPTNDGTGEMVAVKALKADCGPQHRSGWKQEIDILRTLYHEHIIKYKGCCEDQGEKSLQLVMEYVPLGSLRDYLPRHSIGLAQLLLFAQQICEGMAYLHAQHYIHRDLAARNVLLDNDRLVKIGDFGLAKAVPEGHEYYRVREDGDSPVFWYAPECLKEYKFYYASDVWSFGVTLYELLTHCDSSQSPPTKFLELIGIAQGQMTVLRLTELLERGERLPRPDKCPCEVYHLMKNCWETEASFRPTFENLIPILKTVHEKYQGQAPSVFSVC
Sequence of Homeodomain-interacting protein kinase 3 (Homo sapiens) (Q9H422 whole entry, looked up): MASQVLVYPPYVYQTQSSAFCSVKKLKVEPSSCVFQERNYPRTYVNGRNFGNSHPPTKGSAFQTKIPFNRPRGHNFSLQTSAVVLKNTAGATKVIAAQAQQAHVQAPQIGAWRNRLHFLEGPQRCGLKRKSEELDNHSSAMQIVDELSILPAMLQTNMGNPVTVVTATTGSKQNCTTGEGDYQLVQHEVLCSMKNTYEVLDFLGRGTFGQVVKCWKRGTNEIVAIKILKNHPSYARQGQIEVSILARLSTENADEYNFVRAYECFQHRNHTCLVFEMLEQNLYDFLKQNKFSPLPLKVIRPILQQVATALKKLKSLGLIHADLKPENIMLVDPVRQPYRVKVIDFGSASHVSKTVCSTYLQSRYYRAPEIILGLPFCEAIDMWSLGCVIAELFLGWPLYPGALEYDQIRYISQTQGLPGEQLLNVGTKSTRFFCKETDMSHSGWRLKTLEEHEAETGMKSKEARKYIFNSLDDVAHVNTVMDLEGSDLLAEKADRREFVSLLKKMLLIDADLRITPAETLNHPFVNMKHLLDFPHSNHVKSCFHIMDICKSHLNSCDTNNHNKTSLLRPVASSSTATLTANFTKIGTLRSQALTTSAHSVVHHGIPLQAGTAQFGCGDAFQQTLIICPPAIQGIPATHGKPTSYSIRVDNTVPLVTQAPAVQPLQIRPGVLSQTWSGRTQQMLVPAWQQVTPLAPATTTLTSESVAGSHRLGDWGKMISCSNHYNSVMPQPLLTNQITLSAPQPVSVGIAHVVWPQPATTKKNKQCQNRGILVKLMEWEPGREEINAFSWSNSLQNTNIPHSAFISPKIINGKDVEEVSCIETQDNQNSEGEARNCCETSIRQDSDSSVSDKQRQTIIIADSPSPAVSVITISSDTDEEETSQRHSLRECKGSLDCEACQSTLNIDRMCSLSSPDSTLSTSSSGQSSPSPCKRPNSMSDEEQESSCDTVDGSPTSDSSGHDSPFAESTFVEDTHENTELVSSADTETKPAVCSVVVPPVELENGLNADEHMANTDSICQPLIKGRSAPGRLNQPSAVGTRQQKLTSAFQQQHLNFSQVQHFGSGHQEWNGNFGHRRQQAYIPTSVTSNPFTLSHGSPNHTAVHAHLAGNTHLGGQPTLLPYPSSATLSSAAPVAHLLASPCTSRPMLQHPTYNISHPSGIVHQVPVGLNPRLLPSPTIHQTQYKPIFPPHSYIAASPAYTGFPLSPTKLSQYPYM
Sequence of RAC-alpha serine/threonine-protein kinase (Homo sapiens) (P31749 whole entry): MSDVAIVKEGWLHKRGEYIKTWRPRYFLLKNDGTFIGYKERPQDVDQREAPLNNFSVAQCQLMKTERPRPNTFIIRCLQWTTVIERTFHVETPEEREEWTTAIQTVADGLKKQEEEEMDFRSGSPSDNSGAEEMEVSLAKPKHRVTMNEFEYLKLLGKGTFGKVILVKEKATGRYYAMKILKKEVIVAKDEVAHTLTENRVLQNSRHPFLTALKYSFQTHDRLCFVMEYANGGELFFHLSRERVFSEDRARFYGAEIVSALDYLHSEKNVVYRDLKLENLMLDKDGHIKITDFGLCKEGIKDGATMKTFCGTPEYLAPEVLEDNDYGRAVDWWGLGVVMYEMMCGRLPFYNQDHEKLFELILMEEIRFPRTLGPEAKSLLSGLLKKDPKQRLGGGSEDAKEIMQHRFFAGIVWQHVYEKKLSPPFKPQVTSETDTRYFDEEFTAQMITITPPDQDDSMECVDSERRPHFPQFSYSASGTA

For orientation: inhibition means the drop in the measured response relative to a control, in per cent. As to `CS(=O)(=O)c1cccc(Nc2nccc(-c3sc(N4CCOCC4)nc3-c3cccc(NS(=O)(=O)c4c(F)cccc4F)c3)n2)c1`, the inhibition is 42.4% in assay [1]; 25.3% in assay [2]; 89.4% in [3]; 97% in [4]; 99.2% in assay [5]; -3% in assay [6]. In addition, the inhibition was found to be 81.5% in [7]; 22.4% in assay [8]; 39.8% in assay [9]; 3.36% in assay [10]; 54.8% in [11]; 100% in assay [12]. Also, the inhibition in assay [13] was found to be 34.5%.
As for `CC(C)(C)c1cc(NC(=O)Nc2ccc(Oc3ccncc3)cc2)no1`, the inhibition came to 33.8% in assay [1]; 2.1% in assay [2]; 45.5% in assay [3]; 19.3% in assay [4]; 75.6% in assay [5]; 25.2% in assay [6]. Further, the inhibition in assay [7] worked out at 99.2%; in assay [8], 33.7%; in [9] it was 97.2%; in assay [10] it was 4.64%; in [11], 9.99%; in assay [12], 86.1%. Moreover, in [13], the inhibition was 20.1%.
Take `COCCNC(=O)c1ccc2c(c1)nc(-c1cnc(-c3ccc(Cl)cc3)[nH]1)n2CCOC`: the inhibition was 16.4% in [1]; 2.32% in assay [2]; 3.91% in assay [3]; 17.3% in assay [4]; 8.6% in assay [5]; -3.24% in assay [6]. For the same compound, the inhibition worked out at 2.19% in [7]; 7.36% in assay [8]; 5.11% in assay [9]; 4.96% in [10]; 13.2% in [11]; 82.8% in [12]. In assay [13], the inhibition is 11.4%.
